Measurements from ChEMBL document CHEMBL4138123, “Design, synthesis and biological evaluation of novel pyrazolochalcones as potential modulators of PI3K/Akt/mTOR pathway and inducers of apoptosis in breast cancer cells” (Eur J Med Chem, 2017).

Experiments:
A498 [1] = assay: Cytotoxicity against human A498 cells assessed as cell growth at 0.01 uM after 48 hrs by sulforhodamine B assay relative to control; type: functional; details: A498, 48 h, read-out: Activity
Hs-578T = assay: Cytotoxicity against human Hs 578T cells assessed as cell growth at 10 uM after 48 hrs by sulforhodamine B assay relative to control; type: functional; details: read-out: Activity
T47D = assay: Cytotoxicity against human T47D cells assessed as cell growth at 1 uM after 48 hrs by sulforhodamine B assay relative to control; type: functional; details: read-out: Activity
SN12C = assay: Cytotoxicity against human SN12C cells assessed as cell growth at 100 uM after 48 hrs by sulforhodamine B assay relative to control; type: functional; details: read-out: Activity
SK-MEL-5 = assay: Cytotoxicity against human SK-MEL-5 cells assessed as cell growth at 10 uM after 48 hrs by sulforhodamine B assay relative to control; type: functional; details: SK-MEL-5, 48 h, read-out: Activity
U-251 = assay: Cytotoxicity against human U251 cells assessed as cell growth at 0.01 uM after 48 hrs by sulforhodamine B assay relative to control; type: functional; details: U-251, 48 h, read-out: Activity
SNB-19 = assay: Cytotoxicity against human SNB19 cells assessed as cell growth at 100 uM after 48 hrs by sulforhodamine B assay relative to control; type: functional; details: SNB-19, 48 h, read-out: Activity
NCI-H23 = assay: Cytotoxicity against human NCI-H23 cells assessed as growth inhibition after 48 hrs by sulforhodamine B assay; type: functional; details: NCI-H23, 48 h; for CC50: read-out: LC50 (the source's name)
NCI-H460 = assay: Cytotoxicity against human NCI-H460 cells assessed as cell growth at 10 uM after 48 hrs by sulforhodamine B assay relative to control; type: functional; details: NCI-H460, 48 h, read-out: Activity
A498 [2] = assay: Cytotoxicity against human A498 cells assessed as cell growth at 1 uM after 48 hrs by sulforhodamine B assay relative to control; type: functional; details: A498, 48 h, read-out: Activity
TK-10 = assay: Cytotoxicity against human TK10 cells assessed as growth inhibition after 48 hrs by sulforhodamine B assay; type: functional; details: TK-10, 48 h
IGROV-1 = assay: Cytotoxicity against human IGROV1 cells assessed as cell growth at 10 uM after 48 hrs by sulforhodamine B assay relative to control; type: functional; details: IGROV-1, 48 h, read-out: Activity
DU-145 = assay: Cytotoxicity against human DU145 cells assessed as cell growth at 0.1 uM after 48 hrs by sulforhodamine B assay relative to control; type: functional; details: DU-145, 48 h, read-out: Activity
MDA-MB-231 = assay: Cytotoxicity against human MDA-MB-231 cells assessed as cell growth at 100 uM after 48 hrs by sulforhodamine B assay relative to control; type: functional; details: MDA-MB-231, 48 h, read-out: Activity
SK-MEL-28 = assay: Cytotoxicity against human SK-MEL-28 cells assessed as cell growth at 1 uM after 48 hrs by sulforhodamine B assay relative to control; type: functional; details: SK-MEL-28, 48 h, read-out: Activity
SR = assay: Cytotoxicity against human SR cells assessed as cell growth at 10 uM after 48 hrs by sulforhodamine B assay relative to control; type: functional; details: read-out: Activity
HCC 2998 = assay: Cytotoxicity against human HCC2998 cells assessed as cell growth at 0.1 uM after 48 hrs by sulforhodamine B assay relative to control; type: functional; details: HCC 2998, 48 h, read-out: Activity
MDA-MB-468 = assay: Cytotoxicity against human MDA-MB-468 cells assessed as cell growth at 100 uM after 48 hrs by sulforhodamine B assay relative to control; type: functional; details: MDA-MB-468, 48 h, read-out: Activity
OVCAR-5 = assay: Cytotoxicity against human OVCAR5 cells assessed as cell growth at 1 uM after 48 hrs by sulforhodamine B assay relative to control; type: functional; details: OVCAR-5, 48 h, read-out: Activity
OVCAR-8 = assay: Cytotoxicity against human OVCAR8 cells assessed as growth inhibition after 48 hrs by sulforhodamine B assay; type: functional; details: OVCAR-8, 48 h
MCF7 = assay: Cytotoxicity against human MCF7 cells assessed as growth inhibition after 48 hrs by MTT assay; type: functional, cell-based; details: MCF7, 48 h
RPMI-8226 [3] = assay: Cytotoxicity against human RPMI8226 cells assessed as cell growth at 1 uM after 48 hrs by sulforhodamine B assay relative to control; type: functional; details: RPMI-8226, 48 h, read-out: Activity
NCI-H522 = assay: Cytotoxicity against human NCI-H522 cells assessed as cell growth at 100 uM after 48 hrs by sulforhodamine B assay relative to control; type: functional; details: NCI-H522, 48 h, read-out: Activity
NCI-H226 = assay: Cytotoxicity against human NCI-H226 cells assessed as cell growth at 0.1 uM after 48 hrs by sulforhodamine B assay relative to control; type: functional; details: NCI-H226, 48 h, read-out: Activity
SF-539 = assay: Cytotoxicity against human SF539 cells assessed as cell growth at 100 uM after 48 hrs by sulforhodamine B assay relative to control; type: functional; details: SF-539, 48 h, read-out: Activity
UACC-257 [4] = assay: Cytotoxicity against human UACC257 cells assessed as cell growth at 0.01 uM after 48 hrs by sulforhodamine B assay relative to control; type: functional; details: UACC-257, 48 h, read-out: Activity
HT-29 = assay: Cytotoxicity against human HT-29 cells assessed as cell growth at 0.01 uM after 48 hrs by sulforhodamine B assay relative to control; type: functional; details: HT-29, 48 h, read-out: Activity
BT-549 [5] = assay: Cytotoxicity against human BT549 cells assessed as cell growth at 100 uM after 48 hrs by sulforhodamine B assay relative to control; type: functional; details: BT-549, 48 h, read-out: Activity
OVCAR-3 = assay: Cytotoxicity against human OVCAR3 cells assessed as cell growth at 0.1 uM after 48 hrs by sulforhodamine B assay relative to control; type: functional; details: OVCAR-3, 48 h, read-out: Activity
HOP-62 = assay: Cytotoxicity against human HOP62 cells assessed as cell growth at 0.1 uM after 48 hrs by sulforhodamine B assay relative to control; type: functional; details: HOP-62, 48 h, read-out: Activity
MOLT-4 = assay: Cytotoxicity against human MOLT4 cells assessed as cell growth at 1 uM after 48 hrs by sulforhodamine B assay relative to control; type: functional; details: MOLT-4, 48 h, read-out: Activity
CCRF-CEM = assay: Cytotoxicity against human CCRF-CEM cells assessed as cell growth at 10 uM after 48 hrs by sulforhodamine B assay relative to control; type: functional; details: read-out: Activity
UACC-257 [6] = assay: Cytotoxicity against human UACC257 cells assessed as cell growth at 10 uM after 48 hrs by sulforhodamine B assay relative to control; type: functional; details: UACC-257, 48 h, read-out: Activity
RPMI-8226 [7] = assay: Cytotoxicity against human RPMI8226 cells assessed as cell growth at 100 uM after 48 hrs by sulforhodamine B assay relative to control; type: functional; details: RPMI-8226, 48 h, read-out: Activity
BT-549 [8] = assay: Cytotoxicity against human BT549 cells assessed as cell growth at 0.01 uM after 48 hrs by sulforhodamine B assay relative to control; type: functional; details: BT-549, 48 h, read-out: Activity

SMILES: COc1cc2c(cc1OC)C(=O)/C(=C/c1cc(-c3ccc4c(c3)OCO4)n[nH]1)C2
- growth at 0.01 µM (A498 [1]): 80%
- growth at 10 µM (Hs-578T): -9%
- growth at 1 µM (T47D): 69%
- growth at 100 µM (SN12C): -96%
- growth at 10 µM (SK-MEL-5): -98%
- growth at 0.01 µM (U-251): 97%
- growth at 100 µM (SNB-19): -94%
- GI50 (NCI-H23): 1.87 µM
- TGI (NCI-H23): 3.91 µM
- CC50 (NCI-H23): 8.19 µM
- growth at 10 µM (NCI-H460): -59%
- growth at 1 µM (A498 [2]): 69%
- GI50 (TK-10): 1.89 µM
- LC50 (TK-10): 5.96 µM
- TGI (TK-10): 3.36 µM
- growth at 10 µM (IGROV-1): -44%
- growth at 0.1 µM (DU-145): 101%
- growth at 100 µM (MDA-MB-231): -96%
- growth at 1 µM (SK-MEL-28): 105%
- growth at 10 µM (SR): -24%
- growth at 0.1 µM (HCC 2998): 97%
- growth at 100 µM (MDA-MB-468): -86%
- growth at 1 µM (OVCAR-5): 84%
- GI50 (OVCAR-8): 1.57 µM
- LC50 (OVCAR-8): 5.93 µM
- TGI (OVCAR-8): 3.05 µM
- IC50 (MCF7): 1.02 µM
- growth at 1 µM (RPMI-8226 [3]): -24%
- growth at 100 µM (NCI-H522): -92%
- growth at 0.1 µM (NCI-H226): 83%
- growth at 100 µM (SF-539): -94%
- growth at 0.01 µM (UACC-257 [4]): 93%
- growth at 0.01 µM (HT-29): 98%
- growth at 100 µM (BT-549 [5]): -87%
- growth at 0.1 µM (OVCAR-3): 101%
- growth at 0.1 µM (HOP-62): 100%
- growth at 1 µM (MOLT-4): 97%
- growth at 10 µM (CCRF-CEM): -44%
- growth at 10 µM (UACC-257 [6]): -96%
- growth at 100 µM (RPMI-8226 [7]): -54%
- growth at 0.01 µM (BT-549 [8]): 96%

SMILES: COc1cc(-c2cc(/C=C/C(=O)c3ccc(N)cc3)[nH]n2)cc(OC)c1OC
- growth at 0.01 µM (A498 [1]): 91%
- growth at 10 µM (Hs-578T): 29%
- growth at 1 µM (T47D): 66%
- growth at 100 µM (SN12C): -86%
- growth at 10 µM (SK-MEL-5): -95%
- growth at 0.01 µM (U-251): 98%
- growth at 100 µM (SNB-19): -94%
- GI50 (NCI-H23): 2.48 µM
- TGI (NCI-H23): 6.79 µM
- CC50 (NCI-H23): 73.2 µM
- growth at 10 µM (NCI-H460): -32%
- growth at 1 µM (A498 [2]): 76%
- GI50 (TK-10): 4.84 µM
- LC50 (TK-10): 51.6 µM
- TGI (TK-10): 17.5 µM
- growth at 10 µM (IGROV-1): 1%
- growth at 0.1 µM (DU-145): 104%
- growth at 100 µM (MDA-MB-231): -77%
- growth at 1 µM (SK-MEL-28): 90%
- growth at 10 µM (SR): -18%
- growth at 0.1 µM (HCC 2998): 108%
- growth at 100 µM (MDA-MB-468): -65%
- growth at 1 µM (OVCAR-5): 89%
- GI50 (OVCAR-8): 2.39 µM
- LC50 (OVCAR-8): 34.9 µM
- TGI (OVCAR-8): 9.76 µM
- IC50 (MCF7): 1.6 µM
- growth at 1 µM (RPMI-8226 [3]): 28%
- growth at 100 µM (NCI-H522): -83%
- growth at 0.1 µM (NCI-H226): 98%
- growth at 100 µM (SF-539): -99%
- growth at 0.01 µM (UACC-257 [4]): 94%
- growth at 0.01 µM (HT-29): 98%
- growth at 100 µM (BT-549 [5]): -97%
- growth at 0.1 µM (OVCAR-3): 110%
- growth at 0.1 µM (HOP-62): 92%
- growth at 1 µM (MOLT-4): 72%
- growth at 10 µM (CCRF-CEM): -22%
- growth at 10 µM (UACC-257 [6]): -59%
- growth at 100 µM (RPMI-8226 [7]): -40%
- growth at 0.01 µM (BT-549 [8]): 85%

SMILES: COc1ccc(C(=O)/C=C/c2cc(-c3cc(OC)c(OC)c(OC)c3)n[nH]2)cc1OC
- growth at 0.01 µM (A498 [1]): 97%
- growth at 10 µM (Hs-578T): -9%
- growth at 1 µM (T47D): 75%
- growth at 100 µM (SN12C): -86%
- growth at 10 µM (SK-MEL-5): -98%
- growth at 0.01 µM (U-251): 96%
- growth at 100 µM (SNB-19): -95%
- TGI (NCI-H23): 5.24 µM
- CC50 (NCI-H23): 22.7 µM
- growth at 10 µM (NCI-H460): -64%
- growth at 1 µM (A498 [2]): 78%
- LC50 (TK-10): 5.1 µM
- TGI (TK-10): 2.6 µM
- growth at 10 µM (IGROV-1): -84%
- growth at 0.1 µM (DU-145): 101%
- growth at 100 µM (MDA-MB-231): -84%
- growth at 1 µM (SK-MEL-28): 96%
- growth at 10 µM (SR): 2%
- growth at 0.1 µM (HCC 2998): 88%
- growth at 100 µM (MDA-MB-468): -87%
- growth at 1 µM (OVCAR-5): 86%
- LC50 (OVCAR-8): 5.64 µM
- TGI (OVCAR-8): 2.73 µM
- IC50 (MCF7): 0.51 µM
- growth at 1 µM (RPMI-8226 [3]): 2%
- growth at 100 µM (NCI-H522): -97%
- growth at 0.1 µM (NCI-H226): 97%
- growth at 100 µM (SF-539): -96%
- growth at 0.01 µM (UACC-257 [4]): 85%
- growth at 0.01 µM (HT-29): 100%
- growth at 100 µM (BT-549 [5]): -75%
- growth at 0.1 µM (OVCAR-3): 100%
- growth at 0.1 µM (HOP-62): 100%
- growth at 1 µM (MOLT-4): 88%
- growth at 10 µM (CCRF-CEM): -26%
- growth at 10 µM (UACC-257 [6]): -98%
- growth at 100 µM (RPMI-8226 [7]): -41%
- growth at 0.01 µM (BT-549 [8]): 95%
